The subject of data set [1] is WM3734^JARID1Bprom-EGFP cells. In words: Drug treatment of WM3734 JARID1Bprom-EGFP cells, flow cytometry of J/EGFP+ subpopulation and viable cells. In kind it is cell-based, human. The following applies: 72 hours of treatment, clinically relevant doses; threshold set at 5% (DMSO control). The protocol: Left panels, Relative enrichment of the J/EGFP+subpopulation after 72 hours of treatment with a BRAF inhibitor (PLX4720), bortezomib (VEL), temozolomide (TMZ), or salinomycin (SAL) as determined by flow cytometry. The threshold (dotted line) for the J/EGFP+ subpopulation was set at 5% (DMSO control) based on JARID1B expression studies. Depicted box plots represent three independently performed experiments with flow cytometric determination of J/EGFP expression beyond the indicated threshold. Right panels, The number of viable cells within the total population was decreasing during drug treatment.
Flow Cytometry and Fluorescence Activated Cell Sorting. For detection of JARID1B promoter-driven EGFP signals, adherent cells were harvested with 0.05% trypsin and spheres were dissociated as described herein. Dead cells were excluded by staining for 7-AAD. After sorting, aliquots were microscopically checked and were cultured for a short-time to exclude disproportional enrichment of debris or apoptotic cells. Fluorescence-activated cell sorting was carried out using a CYTOMATION MOFLO cytometer (DakoCytomation). Flow cytometric detection of surface markers was done according to standard procedures. Briefly, cells were fixed in 4% paraformaldehyde (PFA) in PBS for 10 minutes and then were blocked with 1% BSA in PBS for 10 minutes at room temperature. Primary and secondary antibodies were incubated for 10 minutes at room temperature. Before and after antibody incubations, cells were washed three times with 1% BSA in PBS. Samples were analyzed using an EPICS XL instrument (Beckman-Coulter). Monoclonal antibodies were follows: anti-CD20 (APC-conjugated; BD PHARMINGEN), anti-CD133 (PE; Miltenyi Biotech), anti-p75/NGFR (APC; Miltenyi Biotech), and anti-MCAM (FITC; R&D Systems). Isotype-matched mouse APC- (BD PHARMINGEN), PE- (R&D Systems), or FITC-conjugated (R&D Systems) antibodies were used as controls. Flow cytometric isolation of side population cells was performed according to established methods (Goodell, et al. (1996) J. Exp. Med. 183:1797-1806). […]
(A flow cytometer gives signals particle by particle.)

The next data set relates to JARID1B. In words: Validation of JARID1B shRNA knockdown clones (RNA, protein, BrdU, MTS, cell counts). In kind it is cell-based, human. The following applies: out of five shRNA clones. The source says:
Melanoma Samples and Cell Culture. Fresh human melanoma tissues and cells were obtained according to standard procedures, isolated and maintained in 2% fetal bovine serum (FBS)-substituted melanoma medium (‘Tu2%’) Smalley, et al. (2005) Am. J. Pathol. 166:1541-1554; Satyamoorthy, et al. (1997) Melanoma Res. 7 Suppl 2:S35-42). According to the isolation of neural stem cells and cancer stem cells from brain tumors by culturing of neurospheres (Yuan, et al. (2004) Oncogene 23:9392-9400; Galli, et al. (2004) Cancer Res. 64:7011-7021), melanoma spheres were propagated in mouse embryonic fibroblast (MEF)-conditioned human embryonic stem cell medium (hESCM) according to conventional methods (Fang, et al. (2005) supra). Before use, MEF-conditioned hESCM was mixed with fresh hESCM medium at a 7:3 ratio (‘hESCM4’) and basic fibroblast growth factor was added at 4 ng/ml. Depending on the cell line, sphere formation could be observed 2-6 weeks after starting culture in hESCM4. Spheres were dissociated by collagenase I/IV (Sigma, St. Louis, Mo.) and mechanical treatment, i.e., 200-250 units per ml DMEM (Cellgro) at 37° C. for 10 minutes plus subsequent pipetting. […]
Given the paradox of an increased in vitro self-renewal capacity without any effect on in vivo tumor initiation, it was determined whether JARID1B still could be important for the continuous maintenance of melanomas. […]

Another data set relates to WM3734 melanomas. Put plainly: Bortezomib treatment of xenotransplanted WM3734 melanomas with JARID1B knockdown. The following applies: 20 μg bortezomib intraperitoneally on days 20, 22, 25, 27; JARID1B knocked-down tumors vs sh scrambled control; p=0.024 (MANOVA). Format: in vivo, NOD/LtSscidIL2Rγ^null mice. The protocol: Xenotransplanted WM3734 melanomas (mean tumor volume ˜200 mm^3) were treated with 20 μg bortezomib (dissolved in PBS and injected intraperitoneally) on days 20, 22, 25, and 27 after xenotransplantation.
Xenotransplantation Assays and Metastasis Model. To address continuous tumor maintenance in vivo, serial xenotransplantation assays with JARID1B knockdown vs. control cells were performed in NOD/LtSscidIL2Rγ^null mice. For every passage, 10^4 cells in MATRIGEL®/Tu2% at a 1:1 dilution were injected subcutaneously in mice (5 mice per sample). One passage included: injection, tumor growth, tumor dissection, cell isolation (mechanical and collagenase I/IV treatment) and purification. Melanoma cell purification was done by three-day-puromycin treatment confirmed by MCAM flow cytometry. Verification of knockdown was carried out by QRT-PCR. […] Tumor growth was measured weekly using a caliper and was terminated when the first tumor of the series reached 1000 mm^3. Metastatic progression was measured in a spontaneous metastasis model. […] Formalin-fixed, paraffin-embedded (FFPE) sections of whole lungs were H&E-stained and the numbers of macro- and micrometastases were microscopically determined (20× magnification). Two representative frontal sections per lung were analyzed. […]

Consider `CC[C@@H](C(=O)[C@@H](C)[C@@H](O)[C@H](C)[C@@H]1O[C@@H]([C@@H](CC)C(=O)O)CC[C@@H]1C)[C@H]1O[C@]2(C=C[C@@H](O)[C@]3(CC[C@@](C)([C@H]4CC[C@](O)(CC)[C@H](C)O4)O3)O2)[C@H](C)C[C@@H]1C` [salinomycin], for which the “relative enrichment for the J/EGFP+ subpopulation” value (shortened to “relative enrichment”) in data set [1] was “relative enrichment for the J/EGFP+ subpopulation”.
In the case of “JARID1B—62: shRNA clone from Sigma targeting the coding sequence of JARID1B, SEQ ID NO:14 (CCGGCGAGATGGAATTAACAGTCTTCTCGAGAAGACTGTTAATTCCATCTCGTTTTT)”, the knockdown phenotype result in the data set on JARID1B is reported as “significant knockdown phenotypes”.
Take “sh JARID1B—58: shRNA clone from Sigma targeting the 3′UTR of JARID1B, SEQ ID NO:15 (CCGGCCCACCAATTTGGAAGGCATTCTCGAGAATGCCTTCCAAATTGGTGGGTTTTT)”: the knockdown phenotype entry in the data set on JARID1B is “significant knockdown phenotypes”.
Consider `CC(C)C[C@H](NC(=O)[C@H](Cc1ccccc1)NC(=O)c1cnccn1)B(O)O` [bortezomib], for which the “relative enrichment” value in data set [1] is “relative enrichment for the J/EGFP+ subpopulation”. Besides, in the data set on WM3734 melanomas, the tumor volume result is listed as “significantly lower tumor volume”.
For the compound `CCCS(=O)(=O)Nc1ccc(F)c(C(=O)c2c[nH]c3ncc(Cl)cc23)c1F` [PLX7420], the “relative enrichment” value in data set [1] is “relative enrichment for the J/EGFP+ subpopulation”.

(Values after patent US20120164148A1, “Compositions Containing JARID1B Inhibitors and Methods for Treating Cancer” (The Wistar Institute, priority 2009, published 2012).)
